The assay relates to Mycobacterium tuberculosis H37Rv growth inhibition, no glycerol. Kind of assay: Confirmatory growth inhibition assay, Mycobacterium tuberculosis H37Rv, absence of glycerol (AID 449764).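 On all read-outs here: growth read after 7 days of incubation.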 Particulars: for IC90: measured here: IC90 growth inhibition.

The IC50 is the concentration that inhibits the measured activity by half. In general, IC90 refers to the point of the concentration-response curve where the effect stands at 90%.

Structures are written as SMILES.

Consider `CCCCCC(O)c1cccc(OCc2ccc3ccccc3n2)c1` (stereo unspecified), for which the IC50 was 35.4 µM and the IC90 was 56 µM.

For the molecule `CN(C)c1ccc(N=Nc2ccccc2C(=O)OCC(=O)NCC2CCCCC2)cc1`, the IC50 was 22.1 µM and the IC90 is 24.9 µM.

As for `O=C1C2(Cl)C3(Cl)C4(Cl)C(Cl)(Cl)C5(Cl)C3(Cl)C1(Cl)C5(Cl)C24Cl` (stereo unspecified), the IC50 is 44.4 µM and the concentration for an effect of 90% (IC90) is 65.2 µM.

On to `Cc1onc(-c2ccccc2Cl)c1C(=O)Oc1cccc2cccnc12`, for which the IC50 is 3.38 µM and the IC90 was 3.98 µM.

For `Cc1cc2[nH]c3c(c[n+](C)c4ccccc34)c2cc1C`, the IC50 is 9.9 µM and the IC90 came to 15.6 µM.

Regarding `C=C(C)C(=O)OCC(O)COc1ccc(C(C)(C)c2ccc(OCC(O)COC(=O)C(=C)C)cc2)cc1` (stereo unspecified), the IC50 is 35.6 µM and the IC90 turned out to be 49.1 µM.

Consider `CCc1nc2ccccc2c(C(=O)Nc2cc(C)ccc2C)c1C`, for which the IC90 is over 100 µM.

As for `CCCCCCCNC1=CC(=O)CC(c2ccccc2)C1` (stereo unspecified), the IC50 was 39.7 µM and the IC90 amounted to 61.3 µM.

For `CCOC(=O)N1CCN(C(=O)CSc2nnc(-c3ccc(Cl)s3)o2)CC1`, the IC50 was 25.2 µM and the IC90 was 29.9 µM.

As for `COC(=O)c1cc(-c2cccc(OC)c2)on1`, the IC50 was 10.5 µM and the IC90 was over 100 µM.

For the molecule `COc1ccccc1NC(=O)Nc1nc(CC(=O)N2CCN(c3ccccc3F)CC2)cs1`, the IC90 was over 100 µM.

For the molecule `N#CC(C(=O)NCc1ccco1)c1nc2ccccc2nc1N1CCOCC1` (stereo unspecified), the IC50 is 43 µM and the IC90 amounted to 47.2 µM.

Consider `CC(C)NC(=O)c1sc(=S)n2c1[nH]c(=O)c1ccc(C(=O)NCCc3ccc(Cl)cc3)cc12`, for which the IC50 is 0.73 µM and the IC90 stood at 0.83 µM.

As to `COc1ccccc1OCCN1CSC(=S)N(C)C1`, the IC50 is 17.8 µM and the IC90 was determined as 23.9 µM.

As for `COc1ccc(OCc2cccc(C(=O)Nn3cc([N+](=O)[O-])cn3)c2)cc1`, the IC50 is 26.2 µM and the IC90 amounted to 42.9 µM.

For `CCC1(c2ccccc2)ON(c2c(Br)cccc2Br)C1=O` (stereo unspecified), the IC50 is 40.2 µM and the IC90 stood at 77.3 µM.

As to `CCCCCCCCSc1nnc(CSc2nc3nc(C)cc(C)n3n2)o1`, the IC50 is 2.63 µM and the IC90 was 6.27 µM.

In the case of `Cc1onc(-c2c(F)cccc2Cl)c1C(=O)O/N=C(\N)c1ccc([N+](=O)[O-])o1`, the IC50 was 14.4 µM and the IC90 was 27.6 µM.

Turning to `CCCCOc1ccc(C(=O)Oc2ccc(C)nc2)cc1`, the IC50 is 54.8 µM and the IC90 is 78.8 µM.

For the molecule `Cc1[nH]c2ccc(OC(F)(F)F)cc2c1CCNCc1ccc(Cl)cc1`, the IC50 was 14.2 µM and the IC90 amounted to 18.8 µM.

On to `Nc1c(C(=O)OCC2CCCO2)c2nc3ccccc3nc2n1C1CCCC1` (stereo unspecified), for which the IC50 is 60.7 µM and the IC90 turned out to be 86.8 µM.

Take `CCC(C)c1ccc2oc(-c3ccc(NC(=O)c4ncn[nH]4)cc3)nc2c1` (stereo unspecified): the IC50 is 8.12 µM and the IC90 is 33 µM.

Regarding `c1ccc(-c2ccccc2OCCCCn2ccnc2)cc1`, the IC50 is 23.3 µM and the IC90 was found to be 26.9 µM.

Consider `C/C(=N\NC(=O)c1cc2ccccc2cc1O)c1ccc(C)o1`, for which the IC50 is 10.5 µM and the IC90 was determined as 18.7 µM.

As to `Cc1cccc(C)c1OCCCCc1c(C)n[nH]c1C`, the IC50 is 17.7 µM and the IC90 is over 100 µM.

As to `Cc1ccc(Cn2c(C(CO)Nc3nc(-c4ccc(F)cc4)cs3)nc3ccccc32)cc1` (stereo unspecified), the IC50 is 66.4 µM and the IC90 came to 91.8 µM.

On to `c1cc2c3c(cccc3c1)NC1(CCC3(CC1)Nc1cccc4cccc(c14)N3)N2`, for which the IC50 is 78.1 µM and the IC90 was over 100 µM.

`CC(C)CCNC(=O)C(c1ccc(O)cc1)N(C(=O)C1COc2ccccc2O1)c1cccc(O)c1` (stereo unspecified): the IC50 was 71.6 µM and the concentration for an effect of 90% (IC90) is over 100 µM.

Regarding `NC1=NC2(CCC(c3ccccc3)CC2)n2c(nc3ccccc32)N1` (stereo unspecified), the IC50 was 32.5 µM and the IC90 came out at 43.7 µM.

Turning to `O=C(/C=C/c1c(F)cccc1Cl)c1ccc(F)cc1`, the IC50 is 46.2 µM and the IC90 is 73 µM.

With `CCCCCCc1cc2cc(C(=O)NCc3ccccc3)c(=N)oc2cc1O`, the IC50 was 5.67 µM and the IC90 came to 6.45 µM.

In the case of `CN(c1ccccc1)c1ccc(/C=C/[N+](=O)[O-])cc1`, the IC50 is 15 µM and the IC90 was 28 µM.

On to `Cc1cc(NC2CCCCC2)nc(-c2ccccc2O)n1`, for which the IC50 is 35.9 µM and the IC90 turned out to be 50.2 µM.

Turning to `CCOC(=O)c1sc(NC(=O)CN2C(=O)NC3(CC(C)CC(C)(C)C3)C2=O)cc1C` (stereo unspecified), the IC50 was 34.1 µM and the IC90 is 48.4 µM.

As for `O=C(Nc1nnc(C2=COCCO2)o1)c1ccc(Cc2ccccc2)cc1`, the IC50 was 11.7 µM and the IC90 was 20.3 µM.

Take `CCc1c(C)sc(NC(=S)N2CCN(CC)CC2)c1C(=O)OC`: the IC50 is 13.3 µM and the IC90 was over 25 µM.

In the case of `CN(C)CCCN(C(=O)c1cc(-c2cccs2)nc2ccccc12)c1nc2ccc(F)cc2s1`, the IC50 was 34.9 µM and the IC90 amounted to 54.3 µM.

In the case of `O=C1c2cccc3c([N+](=O)[O-])ccc(c23)C(=O)N1O`, the IC50 is 11.9 µM and the IC90 worked out at 13.5 µM.

Regarding `Cc1ccc(C(=O)O/N=C\c2ccc(N3CCCCC3)c([N+](=O)[O-])c2)cc1`, the IC50 is 53.4 µM and the IC90 was over 100 µM.

Regarding `Cc1cccc(N2CCN(CCCNC(=O)c3ccc(NC(=O)C4=CSCCO4)cc3)CC2C)c1` (stereo unspecified), the IC50 is 19.7 µM and the IC90 amounted to 28.7 µM.

For `O=C(Nc1ccc(Cl)cc1)N(C1=NCCC1)c1ccc(OC(F)F)cc1`, the concentration for half-maximal inhibition (IC50) is 64.7 µM and the IC90 is over 100 µM.

Take `Cn1ncnc2c(=O)n(C)c(=O)nc1-2`: the IC50 is 2.84 µM and the IC90 amounted to 4.51 µM.

On to `COc1ccc(SC[C@H](Cc2ccccc2)N2CCN(CCc3ccccc3)CCC2=O)cc1`, for which the IC50 was 40.6 µM and the 90% effect concentration (IC90) amounted to 51.4 µM.

Regarding `CNC[C@H](Cc1cccc2ccccc12)NC[C@H](CCSC)NCC1CCC(C(C)(C)C)CC1` (stereo partly specified), the IC50 is 42.6 µM and the IC90 worked out at 47.1 µM.

Consider `Cc1nc(N)nc(N)c1CCCc1ccc(Cl)c(Cl)c1`, for which the IC50 is 87.4 µM and the IC90 is over 100 µM.

In turn, `CSc1ccc(NC(=O)Nc2cccn(Cc3ccccc3)c2=O)cc1` gave a 90% effect concentration (IC90) of over 100 µM.

As to `Cc1cc(-c2cc(-c3ccccc3)on2)nc(NC2CCCC2)n1`, the IC50 was 34.5 µM and the IC90 was 56.6 µM.

In the case of `N#CC1=C(c2ccccc2)/C(=C/c2ccccc2)OC1=O`, the IC50 was 11.6 µM and the IC90 was 23.2 µM.

For `C=CCNC(=O)c1onc(CCl)c1C(=O)OC`, the IC50 was 5.76 µM and the IC90 worked out at 14.2 µM.

In the case of `COc1ccc(C2Oc3ccccc3C3=C2C(c2cccs2)n2ncnc2N3)cc1` (stereo unspecified), the IC50 is 78.9 µM and the IC90 is over 100 µM.

`COc1ccc(N/C=C/C(=O)c2sc(-c3ccccc3)nc2C)cc1`: the IC50 was 79.3 µM and the 90% effect concentration (IC90) was over 100 µM.

Turning to `Cc1ccc(C2=NCCn3c2c2ccccc2[n+]3[O-])cc1`, the IC50 was 24.5 µM and the IC90 came to 31.7 µM.

`Cc1cc(C(=O)CCl)c(C)n1CCc1ccc(Cl)cc1`: the IC50 was 3.95 µM and the IC90 turned out to be 9.41 µM.

Consider `Cc1cc(C)cc(NC(=O)c2ccc(Cn3nc(C)c(Cl)c3C)o2)c1`, for which the IC50 was 34.8 µM and the IC90 is 48.3 µM.

For `CC(Oc1ccc2ccccc2c1)C(=O)NNC(=S)NC(=O)c1ccco1` (stereo unspecified), the IC50 was 22.4 µM and the IC90 is 31.9 µM.

In the case of `Cc1nn2c(NCc3ccccn3)cc(C(C)C)nc2c1-c1ccccc1`, the IC50 is 2.85 µM and the IC90 stood at 3.23 µM.

Take `CC(C)Cn1c([N+](=O)[O-])nc2c1c(=O)[nH]c(=O)n2C`: the half-inhibitory concentration (IC50) was 9.69 µM and the IC90 turned out to be 14.5 µM.

Turning to `COc1ccc(/C=N/Nc2cc(C)nc3ccc(OC)cc23)c(OC)c1`, the IC50 was 16.3 µM and the IC90 is 19.7 µM.

As for `N#Cc1ccc(CN2CCN(CC(=O)NCCc3ccc(Cl)cc3Cl)CC2)cc1`, the IC50 is 44.9 µM and the IC90 was 51.2 µM.

As for `CCc1ccc2oc(-c3ccc(OC)cc3)cc(=Nc3c(C)n(C)n(-c4ccccc4)c3=O)c2c1`, the IC50 is 18.8 µM and the IC90 stood at 23.4 µM.

Take `CCOC(=O)C(C)Sc1ncnc2c1nnn2-c1ccc(F)cc1` (stereo unspecified): the IC50 was 2.61 µM and the IC90 is 9.68 µM.

On to `COCCCn1c(SCc2cccc(OC)c2)nc2cc(OC)c(OC)cc2c1=N`, for which the IC50 was 33.9 µM and the IC90 turned out to be 44.6 µM.

Regarding `Cc1c(C(=O)N(C)C)sc2nc(-c3ccccn3)[nH]c(=O)c12`, the IC50 was 19.5 µM and the IC90 came out at 31.4 µM.

For `CCC[C@@H]1C[C@@H](C(=O)NC(C(C)Cl)[C@H]2O[C@H](SC)[C@H](O)[C@@H](O)[C@H]2O)N(C)C1` (stereo partly specified), the IC50 was 3.91 µM and the IC90 turned out to be 11.5 µM.

For the molecule `COC(=O)CCCCC1SCC(NC(=O)c2ccccc2)C1=O` (stereo unspecified), the IC50 was 36.9 µM and the IC90 came out at 49.8 µM.

For the molecule `c1ccc2c(c1)CCN(c1nc3cc4c(cc3s1)OCCO4)C2`, the IC50 was 35 µM and the IC90 is 55 µM.

On to `CCOC(=O)c1cc(/C(C)=N/OC(=O)c2ccc(C(C)(C)C)cc2)on1`, for which the IC50 was 22.9 µM and the IC90 turned out to be 26.8 µM.

`CCN1CCN(Cc2ccc(NC(=O)c3cc(NC(=O)c4cncc(-c5cccs5)c4)cc(OC)c3)cc2C(F)(F)F)CC1`: the IC50 is 10.3 µM and the IC90 stood at 16.5 µM.

With `COc1ccccc1C1CC(c2ccc(Cl)cc2)Nc2ncnn21` (stereo unspecified), the IC50 was 22.7 µM and the IC90 amounted to 30.7 µM.

`CC1(C)Cc2c(cnn2-c2ccccc2)-c2c1c1ccccc1n2CC(O)CCl` (stereo unspecified): the IC50 is 95.4 µM and the IC90 is over 100 µM.

On to `O=[N+]([O-])c1cccnc1N1CCC(c2cc(-c3cccc(C(F)(F)F)c3)n[nH]2)CC1`, for which the IC50 is 21.5 µM and the IC90 was determined as 34.4 µM.

`Cc1cc(C)n(-c2cc(C(C)(C)C)nc3c(-c4ccccc4)cnn23)n1`: the IC50 is 36.1 µM and the IC90 is 47.3 µM.

The record behind these values is PubChem BioAssay AID449764 (Southern Research Specialized Biocontainment Screening …, 2010).
